Values joined by “and” are separate entries in the source; they are usually repeats but may differ in a detail not shown here. Identical values can stand only once.
Settings: Liquid, Vibrating tube method

CCCCC(CC)COC(=O)c1ccc(C(=O)OCC(CC)CCCC)c(C(=O)OCC(CC)CCCC)c1 (configuration not stated) [tris(2-ethylhexyl) trimellitate]
Settings | mass density
293.15 K, 100 kPa | 988.2 kg/m3
293.15 K, 2510 kPa | 989.6 kg/m3
293.15 K, 5000 kPa | 991 kg/m3
293.15 K, 7510 kPa | 992.4 kg/m3
293.15 K, 10010 kPa | 993.8 kg/m3
293.15 K, 15010 kPa | 996.6 kg/m3
293.15 K, 19990 kPa | 999.2 kg/m3
293.15 K, 30010 kPa | 1004.3 kg/m3
293.15 K, 40020 kPa | 1009.2 kg/m3
293.15 K, 50030 kPa | 1013.8 kg/m3
293.15 K, 68010 kPa | 1021.5 kg/m3
313.15 K, 100 kPa | 973.4 kg/m3
313.15 K, 2500 kPa | 974.9 kg/m3
313.15 K, 2510 kPa | 974.9 kg/m3
313.15 K, 5020 kPa | 976.4 kg/m3 and 976.5 kg/m3
313.15 K, 7490 kPa | 977.9 kg/m3
313.15 K, 10010 kPa | 979.4 kg/m3 and 979.5 kg/m3
313.15 K, 15010 kPa | 982.4 kg/m3
313.15 K, 20000 kPa | 985.3 kg/m3
313.15 K, 30030 kPa | 990.8 kg/m3
313.15 K, 40000 kPa | 996 kg/m3
313.15 K, 40020 kPa | 996 kg/m3
313.15 K, 50000 kPa | 1001 kg/m3
313.15 K, 68000 kPa | 1009.3 kg/m3
333.15 K, 100 kPa | 958.9 kg/m3
333.15 K, 2500 kPa | 960.4 kg/m3 and 960.5 kg/m3
333.15 K, 5000 kPa | 962.1 kg/m3
333.15 K, 7510 kPa | 963.8 kg/m3
333.15 K, 10010 kPa | 965.4 kg/m3
333.15 K, 15010 kPa | 968.6 kg/m3
333.15 K, 20000 kPa | 971.6 kg/m3
333.15 K, 30010 kPa | 977.6 kg/m3
333.15 K, 39990 kPa | 983.1 kg/m3
333.15 K, 50000 kPa | 988.4 kg/m3
333.15 K, 67990 kPa | 997.2 kg/m3
353.15 K, 100 kPa | 944.5 kg/m3
353.15 K, 2490 kPa | 946.2 kg/m3
353.15 K, 5020 kPa | 948.1 kg/m3
353.15 K, 7510 kPa | 949.8 kg/m3
353.15 K, 10020 kPa | 951.6 kg/m3
353.15 K, 14990 kPa | 955 kg/m3
353.15 K, 20010 kPa | 958.3 kg/m3
353.15 K, 30000 kPa | 964.7 kg/m3
353.15 K, 40020 kPa | 970.6 kg/m3
353.15 K, 49990 kPa | 976.2 kg/m3
353.15 K, 68000 kPa | 985.5 kg/m3
373.15 K, 100 kPa | 930.1 kg/m3
373.15 K, 2510 kPa | 932 kg/m3
373.15 K, 5020 kPa | 934 kg/m3
373.15 K, 7500 kPa | 935.9 kg/m3
373.15 K, 10040 kPa | 937.9 kg/m3
373.15 K, 15000 kPa | 941.6 kg/m3
373.15 K, 20030 kPa | 945.2 kg/m3
373.15 K, 30010 kPa | 952 kg/m3
373.15 K, 40020 kPa | 958.3 kg/m3
373.15 K, 49990 kPa | 964.3 kg/m3
373.15 K, 68010 kPa | 974.2 kg/m3

Source: the NIST ThermoML archive (doi:10.1016/j.fluid.2014.10.003)
